# According to patent US20090203749A1, “AGENT FOR CONTROL OF DEGRANULATION REACTION AND CYTOKINE PRODUCTION” (RIKEN, priority 2005, published 2009):
# How the values were obtained:
# [1] = tested on: bone marrow-derived mast cells; assay: antigen stimulation-dependent chemical mediator (β-hexosaminidase) release (degranulation) from mast cells; type: cell-based; conditions: TPEN 0, 2, 5 and 10 μM; IgE-sensitized mast cells stimulated with DNP-HSA for 30 minutes; FIG. 1
# Procedure: The mast cells used were bone marrow-derived mast cells whose differentiation was induced by culturing bone marrow cells with interleukin-3 for 5 weeks. The obtained bone marrow-derived mast cells (1×10^7 cells) were sensitized with 1 μg/mL IgE antibody (SPE-7 clone; available from SIGMA) for 6 hours. After sensitization, the cells were resuspended in Tyrode's buffer (pH 7.4). The composition of the Tyrode's buffer is as described in Table 1.
# The obtained mast cell suspension was stimulated with an antigen (DNP-HSA; dinitrophenyl conjugated Human Serum Albumin; available from SIGMA) at each concentration (shown in FIG. 1) for 30 minutes. To investigate the effect of zinc ions, a zinc ion chelator TPEN (0, 2, 5 and 10 μM) was allowed to coexist with the cells for 2 hours during the sensitization period and for 30 minutes of the stimulation. Chemical mediator β-hexosaminidase released from the mast cells was measured. The activity of β-hexosaminidase was measured with an absorption spectrometer at wavelength of 405 nm by using 4-nitrophenyl N-acetyl-β-D-glucosaminide (available from SIGMA) as a substrate. The extracellular release of entire β-hexosaminidase present in the cell was defined as 100%.
# [2] = tested on: bone marrow-derived mast cells; assay: restoration of TPEN effect on β-hexosaminidase release by enforced introduction of zinc ion; type: cell-based; conditions: TPEN 10 μM; 1 μM pyrithione and zinc ions during DNP-HSA stimulation; FIG. 2
# Procedure: As mast cells sensitized with IgE antibody, the cells prepared in the same way as in Example 1 were used. After sensitization, the mast cells were resuspended in Tyrode's buffer. A zinc ion chelator TPEN (10 μM) was allowed to coexist with the cells for 2 hours during the sensitization period and for 30 minutes of the stimulation. To introduce zinc ions into the cells, the cells were treated with 1 μM pyrithione (Molecular probes, p-24193) during the stimulation, and zinc ions were added at each concentration (shown in FIG. 2) to Tyrode's buffer. The activity of β-hexosaminidase was measured in the same way as in Example 1. TPEN-untreated cells were used as a control, and the extracellular release of entire β-hexosaminidase present in the cell was defined as 100%.
# [3] = tested on: bone marrow-derived mast cells; assay: cytokine production (IL-6 and TNF-α) of mast cells, ELISA; type: cell-based; conditions: TPEN 0, 2, 5 and 10 μM; DNP-HSA 100 ng/ml for 6 hours; FIG. 3
# Procedure: As mast cells sensitized with IgE antibody, the cells prepared in the same way as described in Example 1 were used. After sensitization, the mast cells were resuspended in Tyrode's buffer. The mast cell suspension was stimulated with an antigen (DNP-HSA) at a concentration of 100 ng/ml for 6 hours. To investigate the effect of zinc ions, a zinc ion chelator TPEN (0, 2, 5 and 10 μM) was allowed to coexist with the cells for 2 hours during sensitization and for 6 hours of the stimulation.
# The concentrations of cytokines (IL-6 and TNF-α) in the supernatant were determined using ELISA (BIOSOURCE).
# [4] = tested on: passive cutaneous anaphylaxis; assay: passive cutaneous anaphylaxis (type I allergy) model, Evans blue dye leakage; type: in vivo; conditions: TPEN intraperitoneally 30 minutes before DNP-BSA challenge; mouse ear; FIG. 4
# Procedure: Mouse (6 week-old female, Balb/c Ajc1, CLEA Japan) was sensitized by subcutaneously administering 0.5 μg of IgE antibody (SPE-7, SIGMA) into the ear in order to induce passive cutaneous anaphylaxis. 30 minutes later, passive cutaneous anaphylaxis was induced by intravenous injection of 250 μg of antigen DNP-BSA (COSMOBIO) and 1.25 mg of Evans blue (SIGMA) into the tail of the mouse. In order to digitalize Evans blue dye leakage, the dye was extracted from the ear of the mouse using formamide. The extracted dye was measured by absorbance at wavelength of 620 nm. The amount of dye in each experiment was calculated from the analytical curve obtained by known amounts of Evans blue.
compound,measurement,setting,value
"c1ccc(CN(CCN(Cc2ccccn2)Cc2ccccn2)Cc2ccccn2)nc1 [TPEN, N,N,N′,N′-tetrakis(2-pyridylmethyl)ethylenediamine]",chemical mediator (β-hexosaminidase) release,[1],concentration-dependent suppressive effect
same,suppressive effect on the chemical mediator release after addition of zinc ions,[2],restored by the addition of the zinc ions
same,cytokine production (IL-6 and TNF-α in supernatant),[3],dose dependent suppression
same,dye leakage of Evans blue,[4],suppressed dose-dependently
